Values quoted from earlier work in patent US9293280B2, “Mixture of hydrofluoroolefine and hydrofluorocarbide to improve the internal ARC resistance in medium and high voltage electric apparatus” (priority 2012, dated 2016).

How the values were obtained:
[1] = system: human; conditions: average limiting content, 8 hours of work for 5 days per week without harmful effect
[2] = system: animal population; conditions: causing the death of 50% of an animal population

F/C=C/C(F)(F)F [HFO-1234ze, trans-1,3,3,3-tetrafluoro-1-propene]
average exposure value AEV [1]: 1000 ppm | lethal dose LD50 [2]: > 200 000 ppm

O=C(C(F)(F)F)C(F)(C(F)(F)F)C(F)(F)F [C5K, decafluoro-2-methylbutan-3-one]
average exposure value AEV [1]: 1000 ppm | lethal dose LD50 [2]: greater than 200 000 ppm
